Reference: ChEMBL document CHEMBL1124285, “Conformational analysis and structural comparisons of (1R,3S)-(+)- and (1S,3R)-(-)-tefludazine, (S)-(+)- and (R)-(-)-octoclothepin, and (+)-dexclamol in relation to dopamine receptor antagonism and amine-uptake inhibition” (J Med Chem, 1988)

How the values were obtained:
[1] = target: D(2) dopamine receptor (Rattus norvegicus, UniProt P61169); assay: Binding affinity against Dopamine receptor D2 using [3H]spiroperidol
[2] = species: Rattus norvegicus; assay: Inhibition of [3H]norepinephrine uptake in rat brain synaptosomes; format: functional, organism-based
[3] = species: Rattus norvegicus; assay: Inhibition of [3H]-dopamine uptake in rat brain synaptosomes; format: functional, organism-based

Sequence of D(2) dopamine receptor (P61169 whole entry): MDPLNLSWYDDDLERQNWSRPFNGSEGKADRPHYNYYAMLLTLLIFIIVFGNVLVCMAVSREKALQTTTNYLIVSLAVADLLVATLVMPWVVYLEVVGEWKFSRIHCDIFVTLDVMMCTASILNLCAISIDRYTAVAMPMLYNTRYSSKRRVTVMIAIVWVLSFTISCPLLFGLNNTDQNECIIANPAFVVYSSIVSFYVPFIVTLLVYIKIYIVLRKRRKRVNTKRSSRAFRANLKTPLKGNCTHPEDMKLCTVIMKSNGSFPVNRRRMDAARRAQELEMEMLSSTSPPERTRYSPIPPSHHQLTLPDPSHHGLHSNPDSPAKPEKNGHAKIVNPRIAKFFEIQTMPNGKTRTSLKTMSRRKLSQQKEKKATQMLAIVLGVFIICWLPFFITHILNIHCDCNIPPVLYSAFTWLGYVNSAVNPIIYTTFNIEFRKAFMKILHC

CC(C)[C@]1(O)CCN2C[C@H]3c4ccccc4CCc4cccc(c43)[C@@H]2C1
IC50 [1]: 6 nM

OCCN1CCN([C@H]2C[C@H](c3ccc(F)cc3)c3ccc(C(F)(F)F)cc32)CC1
IC50 [1]: 590 nM | IC50 ([2]; Rattus norvegicus, Brain, 3 h): 730 nM | IC50 ([3]; Rattus norvegicus, Brain, 3 h): 130 nM

CN1CCN(C2Cc3ccccc3Sc3ccc(Cl)cc32)CC1 (racemic) [CLOROTEPINE]
IC50 ([2]; Rattus norvegicus, Brain, 3 h): 0.64 nM | IC50 ([3]; Rattus norvegicus, Brain, 3 h): 6300 nM

CC(C)[C@@]1(O)CCN2C[C@@H]3c4ccccc4CCc4cccc(c43)[C@H]2C1 [DEXCLAMOL]
IC50 [1]: 900 nM

OCCN1CCN([C@@H]2C[C@@H](c3ccc(F)cc3)c3ccc(C(F)(F)F)cc32)CC1 [TEFLUDAZINE]
IC50 [1]: 14 nM | IC50 ([2]; Rattus norvegicus, Brain, 3 h): 15000 nM | IC50 ([3]; Rattus norvegicus, Brain, 3 h): 2200 nM

(-)-BUTACLAMOL
IC50 [2]: 7400 nM | IC50 [3]: 9500 nM
